# Reference: US20240383973A1, “METHODS FOR TREATING CALCITONIN GENE-RELATED PEPTIDE (CGRP) - EXPRESSING CANCERS” (The Board of Regents of the University of Oklahoma, priority 2022, published 2024)
# “Also recorded” adds a separate entry of the source.
# Experiments:
# [1] = system: Py230 murine mammary tumors; assay: Anti-CGRP/anti-PD-1 combination treatment effect on tumor volume and tumor regression; type: in vivo; conditions: treatment day 28-56, followed to day 70; 10 mice per group
# Source text: The anti-PD-1 compound is a rat IgG2a anti-mouse PD-1 antibody, clone RMP1-14, obtained from Bio X Cell. The CGRP inhibitor is olcegepant. The isotype control is a rat IgG2a, clone 2A3, raised against human CD25, obtained from Bio X Cell.
# Mice were transplanted with Py230 murine mammary tumors in the mammary fat pad. 28 days after tumor implantation the drug treatments were initiated. Treatments were: (1) Mock—isotype control and vehicle control, (2) CGRP inhibitor+isotype control, (3) anti-PD-1+vehicle control, and (4) Combination: CGRP inhibitor+anti-PD-1. Treatments were terminated 56 days after transplantation. The anti-PD-1 compound was a rat IgG2a anti-mouse PD-1 antibody, clone RMP1-14, obtained from Bio X Cell, the CGRP inhibitor was olcegepant, and the isotype control was a rat IgG2a, clone 2A3, raised against human CD25, obtained from Bio X Cell. Tumor volume, as determined by caliper measurement, was measured every other day until day 70 post-transplant. Average tumor mass of 10 individuals across two experiments is depicted (FIG. 4). The results (FIG. 5) also indicated the numbers of mice in the 4 treatment groups that experienced either tumor progression (i.e., continual growth of tumor), tumor stagnation (cessation of growth for at least 3 weeks), or tumor regression (tumor no longer palpable) in each cohort. […]
# [2] = system: tumor infiltrating T cells and B cells; assay: Flow cytometric analysis of tumor-isolated immune cells after BIBN4096 treatment; type: in vivo, mice; conditions: day 63, flow cytometry; vs mock
# Procedure: (§1) B6 mice were transplanted with Py230 tumor cells in the 4th mammary fat pad. Beginning on Day 28 post-transplant, mice were either injected with the CGRP inhibitor BIBN4096 in DMSO (white) or DMSO alone (black). 63 days post-transplant, tumors were isolated and tumor mass (FIG. 2A) determined. Tumors were digested and the ratio of activated CD44^hi CD43^+CD8 T cells to FoxP3^+ Tregs determined (FIG. 2B). PD-1 expression on tumor-isolated CD8+ T cells was measured by flow cytometry (FIG. 2C). Symbols represent individual mice, composite of two experiments. *p<0.05, **p<0.01.
# B6 mice were transplanted with Py230 triple negative breast cancer cell line, tumors were measured 3×/week for 63 days. BIBN4096 or DMSO vehicle control (mock) were administered 1×/week starting on day 28 over a period of 4 weeks. Tumor was passed through a 70 µm cell strainer and single cell suspension was stained for flowcytometric analysis. FIG. 11A. BIBN4096 treated mice have a higher ratio of activated CD8^+ T cells to regulatory T cells (T reg) compared to the mock treated controls. FIG. 11B. […] FIG. 11C. […] FIG. 11D. Tumor infiltrating T cell subtypes at day 63 in BIBN4096 and mock treated controls. (n=15 group) Mann-Whitney Test, *p<0.05, **p<0.01, ****p<0.0001, n.s. not significant.
# [3] = system: Py230 triple negative breast cancer cell line; assay: Py230 tumor transplant in B6 mice, BIBN4096 vs DMSO: tumor growth and tumor mass; type: in vivo; conditions: vs DMSO mock
# Procedure: as §1
# B6 mice were transplanted with Py230 triple negative breast cancer cell line, tumors were measured 3×/week for 63 days. BIBN4096 or DMSO vehicle control (mock) were administered 1×/week starting on day 28 over a period of 4 weeks. Tumor masses were measured at day 63. FIG. 10A. Tumor growth curves of BIBN4096 treated B6 mice and mock treated controls. FIG. 10B. Tumor masses of BIBN4096 treated mice and mock treated controls. (n=10/group), Mann-Whitney Test, *p<0.05.
structure (smiles),measurement,setting,value
"NCCCC[C@H](NC(=O)[C@@H](Cc1cc(Br)c(O)c(Br)c1)NC(=O)N1CCC(N2Cc3ccccc3NC2=O)CC1)C(=O)N1CCN(c2ccncc2)CC1 [BIBN4096, Olcegepant]","tumor progression (continual growth of tumor), share of tumors",[1],most tumors continued to progress
same,"tumor stagnation (cessation of growth for at least 3 weeks), share of tumors",[1],30%
same,PD-1 expression on activated CD8+ T cells from tumor,[2],increased expression
same,ratio of activated CD8+ T cells to regulatory T cells (Treg) in tumor,[2],higher ratio
same,tumor infiltrating B cells,[2],increased infiltration; also recorded: enhances CD8+ T cell activation and tumor infiltrating B cells
same,tumor growth,"[3]; B6 mice, Py230, BIBN4096 1x/week from day 28 for 4 weeks, tumors measured for 63 days",inhibits tumor growth; also recorded: stops growth of triple negative breast cancer
same,tumor mass,[3]; day 63 post-transplant,decreases tumor mass
